Results taken from patent publication US12404232B2, “Compounds and compositions for intracellular delivery of therapeutic agents” (ModernaTX, Inc., priority 2015, dated 2025).

Legend:
mice [1] = assay: Luc expression (bioluminescence, total flux) after intravenous administration to mice; assay type: in vivo
Outline: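 Whole-body bioluminescence was read at 3, 6 and 24 h after a single IV 0.5 mg/kg dose of Luc mRNA nanoparticles in mice, six per group. Total flux (AUC) is reported relative to the MC3 benchmark.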

mice [2] = assay: Luc expression (total flux) after intramuscular administration; assay type: in vivo; conditions: 6 hours after intramuscular administration, Luc mRNA (Table 5B)
mice [3] = assay: Luc expression in liver, lung, spleen and femur after intravenous administration to mice; assay type: in vivo; conditions: Luc mRNA, i.v. to mice, 0.5 mpk, 6 hours
Procedure: The efficacy of the nanoparticle compositions presented in Table 1A was further evaluated by measuring the expression of modified luciferase in the liver, lung, spleen, and femur upon administration of a given composition. Formulations were administered intravenously to mice (n=3) at a dosage of 0.5 mpk and bioluminescence measured after 6 hours. The standard MC3 formulation and a PBS control were also tested. […] Flux in the liver was lowest for compositions including Compounds 58, 59, 137, and 141. Flux in the spleen was highest for compositions including Compounds 4, 7, 33, 34, 48, 53, 108, 129, 130, and 148, and lowest for compositions including Compounds 9, 59, 124, and 141.

non-human primates = assay: Tolerability in non-human primates (clinical chemistry, hematology, observations); assay type: in vivo, Cynomolgus monkeys
Procedure: The tolerability and efficacy of nanoparticle compositions to non-human primates was also investigated using a sample formulation including Compound 18. The formulation was prepared according to the standard MC3 formulation described above and included an hEPO mRNA. Primates were administered a single dose of 0.05 (Group 1), 0.3 (Group 2), or 1.0 (Group 3) mpk via intravenous infusion for 60 minutes. Three primates were administered each dose. Expression of hEPO was measured prior to dosing and at 2, 6, 24, 48, and 96 hours post-treatment (Table 26). Table 28 includes levels of indicators of complement activation, while Table 29 includes cytokine induction data.
In general, lower doses were better tolerated. High doses induced body temperature elevation and hunched posture, which is similar to the behavior observed for primates administered higher doses of MC3 formulations.

Row | SMILES | AUC (p/s*h) (mice [1]; Luc total flux (Table 3D)) | 6 h Lipid/MC3 G.M. Luc Expression (mice [1]; i.v. administration, 6 h, geometric mean) | AUC (h*p/s) (mice [1]; i.v. administration, total Luc flux (Table 3C)) | Total flux (p/s) 0.01 mpk Dose (mice [2]) | Total Flux Femur (mice [3]) | Total Flux Liver (mice [3]) | Total Flux Lung (mice [3]) | Total Flux Spleen (mice [3]) | White blood cell counts (non-human primates; non-human primates, 0.05, 0.3 or 1.0 mpk) | reticulocyte counts on Day 5 (non-human primates; non-human primates, all groups)
1 | CCCCCC=CCC=CCCCCCCCCC(CCCCCCCCC=CCC=CCCCCC)OC(=O)CCCN(C)C (stereo not shown) [MC3, heptatriaconta-6,9,28,31-tetraen-19-yl 4-(dimethylamino)butanoate, reference compound] | 1.909E+011 p/s*h | 1 | 8.24E+10 h*p/s | 3.23E+07 p/s | 2.56E+06 | 2.57E+09 | 1.27E+07 | 2.85E+07 |  | 
2 | CCCCCCCCCOC(=O)CCCCCCCN(CCO)CCCCCCCC(=O)OC(CCCCCCCC)CCCCCCCC [Compound 18, Heptadecan-9-yl 8-((2-hydroxyethyl)(8-(nonyloxy)-8-oxooctyl)amino)octanoate] |  |  |  |  |  |  |  |  | slightly elevated in animals in the high dose group | marked increase
